Reference: ChEMBL document CHEMBL1201862, “PubChem BioAssay data set” (2004)
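48-hour exposure; five concentrations; linearly interpolated endpoints. Abbreviation: GI50, concentration required for 50% inhibition of growth.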 Active and inactive are the calls of the source. No stated cut-off is given here; in the data, active = GI50 up to about 1.1 µM and inactive = higher.

Tests used:
Test in all cases: DTP human tumour cell line panel, 48 h
SNB-19 = system: SNB-19
HT-29 = system: HT-29
NCI-H226 = system: NCI-H226
SK-MEL-5 = system: SK-MEL-5
U-251 = system: U-251
HOP-62 = system: HOP-62
CAKI-1 = system: CAKI-1
MDA-N = system: MDA-N
OVCAR-3 = system: OVCAR-3
ACHN = system: ACHN
EKVX = system: EKVX
SK-OV-3 = system: SK-OV-3
TK-10 = system: TK-10
NCI-H460 = system: NCI-H460
T47D = system: T47D
SN12C = system: SN12C
OVCAR-4 = system: OVCAR-4
RPMI-8226 = system: RPMI-8226
Malme-3M = system: Malme-3M

Measured: GI50

COc1cc(/C=C2\C[C@H]3[C@@H]4CC=C5C[C@@H](O)CC[C@]5(C)[C@H]4CC[C@]3(C)C2=O)cc(OC)c1OC
inactive: SNB-19 27.7 µM | HT-29 19.9 µM | NCI-H226 31.4 µM | SK-MEL-5 12.5 µM | U-251 32.1 µM | HOP-62 26.4 µM | CAKI-1 36.9 µM | MDA-N 29.1 µM | OVCAR-3 26.2 µM | ACHN 30.5 µM | EKVX 33.5 µM | SK-OV-3 53.1 µM | TK-10 37.2 µM | NCI-H460 27.4 µM | T47D 12.6 µM | SN12C 26.1 µM | OVCAR-4 39.4 µM | RPMI-8226 6.98 µM | Malme-3M 32.7 µM

O=[N+]([O-])c1cc(/C=N/C23CC4CC(CC(C4)C2)C3)ccc1Cl
inactive: SNB-19 28.6 µM | HT-29 19.1 µM | NCI-H226 51.1 µM | SK-MEL-5 21.5 µM | U-251 18.7 µM | HOP-62 4 µM | CAKI-1 6.71 µM | MDA-N 8.02 µM | OVCAR-3 17.9 µM | ACHN 24 µM | EKVX 29.9 µM | SK-OV-3 18.4 µM | TK-10 29.7 µM | NCI-H460 31.8 µM | T47D 18.2 µM | SN12C 15.9 µM | OVCAR-4 19.5 µM | RPMI-8226 4.31 µM | Malme-3M 20.9 µM

C#C[C@]1(O)CC[C@H]2[C@@H]3CCC4=C/C(=N/OC(=O)c5cccc6c(=O)c7ccccc7[nH]c56)CC[C@@H]4[C@H]3CC[C@@]21C
inactive: SNB-19 > 100 µM | HT-29 52.5 µM | NCI-H226 83.6 µM | SK-MEL-5 20.2 µM | U-251 62.1 µM | HOP-62 > 100 µM | CAKI-1 37.5 µM | MDA-N 43.2 µM | OVCAR-3 64.1 µM | ACHN 66.1 µM | EKVX 71 µM | SK-OV-3 > 100 µM | TK-10 > 100 µM | NCI-H460 37.2 µM | T47D 29 µM | SN12C > 100 µM | OVCAR-4 > 100 µM | RPMI-8226 13.6 µM | Malme-3M 45 µM

Nc1c2c(nc3ccccc13)CCCc1ccccc1-2
inactive: SNB-19 11.3 µM | HT-29 4.53 µM | NCI-H226 15.9 µM | SK-MEL-5 8.45 µM | U-251 11.3 µM | HOP-62 12.4 µM | CAKI-1 15.9 µM | MDA-N 4.17 µM | OVCAR-3 27 µM | ACHN 10.3 µM | EKVX 13.2 µM | SK-OV-3 33.5 µM | TK-10 6.08 µM | NCI-H460 2.81 µM | T47D 11 µM | SN12C 12.8 µM | OVCAR-4 20.1 µM | RPMI-8226 5.32 µM | Malme-3M 18.5 µM
